In one assay the test system is RhoA. Put plainly: RhoA G-LISA Activation Assay. The note with it: RhoA Activator for 40 min after 48 hr isoquercitrin incubation (control). The class given is cell-based. The method, then: FIG. 6 illustrates RhoA activation. […] RhoA activity is depressed following administration of isoquercitrin for 48 hrs.
(§1) Cell culture. The NG108-15 neuroblastoma/glioma cells and ND7/23 rat DRG/mouse neuroblastoma cells were seeded at 10^4 cells/cm^2 on laminin coated wells and stimulated for 48 hours with 40 μM isoquercitrin (Cat No 00140585, Sigma) alone or in combination with either 10 μM Rho Kinase inhibitor Y-27632 (Cat No Y0503, Sigma) or 0.25 μg/ml Rho inhibitor Exoenzyme C3 Transferase (Cat No CT04, Cytoskeleton). Later, isoquercitrin stimulated cells were incubated with 0.2 unit/ml Rho Activator Calpeptin (Cat No CN01, Cytoskeleton) or, alternatively with 0.25 μM Phospholipase C inhibitor U73122 (Cat No 662035, Calbiochem). Live Cell Imaging. During incubation, cells were observed by time-lapse live cell imaging with Cell-IQ (Chip-Man Technologies, Ltd). Quantitative analysis of neurite length/cell was performed using Cell-IQ Analyser Software. Cell imaging by Immunofluorescence. […] The plate was incubated with an HRP detection reagent for 15 min at 37° C. and, after addition of an HRP stop buffer, the absorbance was immediately recorded at 490 nm. […] The purity and concentration were determined using a Nanoprop ND 1000 (Nanoprop Technologies, Delaware, USA) and a Bioanalyzer 2100 (Agilent, Waldbronn, Germany). […]

Assay [1] concerns PC3 human prostatic cancer cells, NIH 3T3 fibroblasts, and podocytes. The note with it: PC3, NIH 3T3 fibroblasts, references [6-8]; cited from earlier work.
The subject of assay [2] is NG108-15 neuroblastoma-glioma hybridoma cells and the ND7/23 neural cell line. Put plainly: Incubation of neural cell lines with 15 flavonoids, neurite formation. Type of assay: cell-based. The note with it: for neurite formation: screen of 15 flavonoids, NG108-15 and ND7/23 cells. The method, then:
as §1, with “Immunofluorescence. Cells were cultured for 48 hrs on a Chamber Slide™ System (Lab-Tek™) under the above described conditions. Then, the cells were fixed and permeabilized with 4% formaldehyde/0.1% Triton X100 in PBS for 20 min at 4° C. After blocking with PBS containing 20% FBS and 5% BSA for 1 h at room temperature, they were incubated with mAb anti-synaptotagmin-1 (1:200, SY Synaptic Systems) for 1 hr at room temperature. Following three washes in PBS, cells were incubated with Alexa Fluor® 488 goat anti-mouse IgG/IgM (Invitrogen) for 30 min at room temperature. Afterwards, cells were incubated with 0.13 μg/ml phalloidin in the dark for 30 min at 4° C. Finally DAPI was added and last 30 min. Samples were rinsed three times and kept in PBS. The imaging was performed using Confocal Laser Scanning Microscope (Carl Zeiss AG). Assay for RhoA activation.” for “Immunofluorescence.”

The test system of the next assay is PC 12 cells. The note with it: via the ERK pathway, reference [1]; cited from earlier work.
A further assay has as its system NG108 cells. Put plainly: Microarray gene expression analysis (whole Mouse Genome 4x44k OligoMicroarrays). Type of assay: cell-based. The note with it: 40 uM isoquercitrin. The method, then:
Cell culture. The NG108-15 neuroblastoma/glioma cells and ND7/23 rat DRG/mouse neuroblastoma cells were seeded at 10^4 cells/cm^2 on laminin coated wells and stimulated for 48 hours with 40 μM isoquercitrin (Cat No 00140585, Sigma) alone or in combination with either 10 μM Rho Kinase inhibitor Y-27632 (Cat No Y0503, Sigma) or 0.25 μg/ml Rho inhibitor Exoenzyme C3 Transferase (Cat No CT04, Cytoskeleton). Later, isoquercitrin stimulated cells were incubated with 0.2 unit/ml Rho Activator Calpeptin (Cat No CN01, Cytoskeleton) or, alternatively with 0.25 μM Phospholipase C inhibitor U73122 (Cat No 662035, Calbiochem). Live Cell Imaging. During incubation, cells were observed by time-lapse live cell imaging with Cell-IQ (Chip-Man Technologies, Ltd). Quantitative analysis of neurite length/cell was performed using Cell-IQ Analyser Software. Cell imaging by Immunofluorescence. Cells were cultured for 48 hrs on a Chamber Slide™ System (Lab-Tek™) under the above described conditions. Then, the cells were fixed and permeabilized with 4% formaldehyde/0.1% Triton X100 in PBS for 20 min at 4° C. After blocking with PBS containing 20% FBS and 5% BSA for 1 h at room temperature, they were incubated with mAb anti-synaptotagmin-1 (1:200, SY Synaptic Systems) for 1 hr at room temperature. Following three washes in PBS, cells were incubated with Alexa Fluor® 488 goat anti-mouse IgG/IgM (Invitrogen) for 30 min at room temperature. Afterwards, cells were incubated with 0.13 μg/ml phalloidin in the dark for 30 min at 4° C. Finally DAPI was added and last 30 min. Samples were rinsed three times and kept in PBS. The imaging was performed using Confocal Laser Scanning Microscope (Carl Zeiss AG). Assay for RhoA activation. For RhoA activation assay, the procedure followed the manufacture's instruction regarding RhoA G-LISA™ Activation Assay (Cytoskeleton). Briefly, grown cells were homogenized in a lysis buffer and were centrifuged at 14,000 rpm for 2 min. The supernatants, containing equal amount of proteins (60 μg/30 μl), were transferred into a 96 well plate and equal volumes of ice-cold binding buffer were added into each well. The plate was incubated for 30 min under shaking (400 rpm) at 4° C. Then they were incubated with diluted anti-RhoA primary antibodies followed by secondary antibodies while shaking (400 rpm) at room temperature for 45 min each. The plate was incubated with an HRP detection reagent for 15 min at 37° C. and, after addition of an HRP stop buffer, the absorbance was immediately recorded at 490 nm. Microarray and RT-PCR. Total cellular RNA was isolated using the RNAeasy spin columns with the DNAse digestion step. The purity and concentration were determined using a Nanoprop ND 1000 (Nanoprop Technologies, Delaware, USA) and a Bioanalyzer 2100 (Agilent, Waldbronn, Germany). All samples had 260/280 nm ratio above 1.8 and a 28S/18S ratio within 1.5-2. RNA (600 ng) was reverse transcribed into double-stranded complementary DNA (ds-cDNA) in the presence of RNA poly-A controls, RNA Spike-In Kit, Two-Color. The ds-cDNA was in vitro transcribed in the presence of Cy3 (control) and Cy5 (flavonoid-stimulated) labelled nucleotides using a Quick Amp labelling, two-color kit (Agilent P/N 5190-0444, Waldbronn, Germany). Transcription products (1.65 μg) were blocked, fragmented and hybridized to whole Mouse Genome 4×44k OligoMicroarrays (Agilent G4122F) for 17 h at 65° C. Arrays were then washed according to the manufacturer instructions and an Agilent Microarray Scanner used to measure the fluorescent intensity emitted by the labeled target. Total RNA was also reverse transcribed using oligo-dT primer and Superscript III enzyme (Invitrogen). […]

Each structure is given as a SMILES string.

In the case of `CCCC[C@@H](C=O)NC(=O)[C@H](CC(C)C)NC(=O)OCc1ccccc1` [RhoA Activator], the “RhoA activation (G-LISA) after RhoA Activator” value in the assay with RhoA is listed as “increases RhoA activation”.
Regarding `C[C@@H](N)[C@H]1CC[C@H](C(=O)Nc2ccncc2)CC1` [Y-27632], in assay [1], the “cell morphology on ROCK inhibition” value is listed as “elongated morphology”.
For `O=c1c(O)c(-c2ccc(O)c(O)c2)oc2cc(O)ccc12` [fisetin], in assay [2], the neurite formation entry is reported as “significant neurites”. In the assay on PC 12 cells, the “neurite outgrowth in PC 12 cells” value is reported as “induce neurite outgrowth”.
For `O=c1c(O[C@@H]2O[C@H](CO)[C@@H](O)[C@H](O)[C@H]2O)c(-c2ccc(O)c(O)c2)oc2cc(O)cc(O)c12` [isoquercitrin, quercetin-3-β-D-glycoside], in the assay with NG108 cells, the “Fold-change, GABA A receptor-associated protein-like 1 Gene” value is 2.361; the “Fold-change, calcium and integrin binding 1 (calmyrin) Gene” value stood at 1.297; the “Fold-change, cholinergic receptor, nicotinic, alpha polypeptide 10 Gene” value came to 1.438; the “Fold-change, cortactin binding protein 2 Gene” value is on record as 1.518. In addition, in the assay with NG108 cells, the “Fold-change, dopamine receptor 4 Gene” value worked out at 1.248; the “Fold-change, glutamate receptor, ionotropic, N-methyl D-aspartate-associated protein 1 Gene” value stood at 1.595; the “Fold-change, neural proliferation, differentiation and control gene 1 Gene” value stood at 1.385; the “Fold-change, neuroligin 2 Gene” value stood at 1.266. Besides, in the assay with NG108 cells, the “Fold-change, neurotrophin 5 Gene” value was 1.325; the “Fold-change, protein kinase C and casein kinase substrate in neurons 1 Gene” value is on record as 1.398; the “Fold-change, reticulon 3 Gene” value is reported as 1.316; the “Fold-change, synapsin I Gene” value is listed as 1.287. Further, in the assay with NG108 cells, the “Fold-change, synapsin II Gene” value was 1.518; the “Fold-change, synaptogyrin 1 Gene” value was determined as 2.130; the “Fold-change, synaptopodin 2-like Gene” value worked out at 1.393; the “Fold-change, synaptotagmin I Gene” value is listed as 1.934. Moreover, in the assay on NG108 cells, the “Fold-change, synaptotagmin IV Gene” value was found to be 1.825 and the “Fold-change, synaptotagmin XI Gene” value turned out to be 1.913. Moreover, in assay [2] (in comparison to the other substances tested), the “persistence of neurite networks” value is listed as “up to 4 days of culture”.
Turning to `O=c1c(O)c(-c2ccc(O)cc2)oc2cc(O)cc(O)c12` [kaempferol], the neurite formation entry in assay [2] is reported as “significant neurites”.

The values are drawn from patent US20120087980A1, “STIMULATION OF NEUROREGENERATION BY FLAVONOID GLYCOSIDES” (priority 2010, published 2012).
